Measured values reported in patent US9663473B2 (Actelion Pharmaceuticals Ltd, priority 2013, dated 2017).
Where a name gives a salt, the structure may show the parent alone.

Target: T1, recombinant human ALX receptor (Homo sapiens, UniProt P25090)
T1 construct: expressed in transfected cells; host or cells: HEK293 (HEK293-hALXR-Gα16)
T1 sequence (P25090 1-351): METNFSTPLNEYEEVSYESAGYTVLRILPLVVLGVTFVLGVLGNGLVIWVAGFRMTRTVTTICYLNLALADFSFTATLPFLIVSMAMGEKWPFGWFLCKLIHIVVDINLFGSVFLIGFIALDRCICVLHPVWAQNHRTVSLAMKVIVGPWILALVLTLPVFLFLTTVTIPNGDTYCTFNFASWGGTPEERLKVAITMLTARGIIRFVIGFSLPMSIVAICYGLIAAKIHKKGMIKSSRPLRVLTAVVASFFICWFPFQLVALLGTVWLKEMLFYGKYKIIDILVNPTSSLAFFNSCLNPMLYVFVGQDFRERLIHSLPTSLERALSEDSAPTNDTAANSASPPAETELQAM
Test: Intracellular calcium measurements (FLIPR), ALX receptor agonistic activity
Type: cell-based
Conditions: HEK293-hALXR-Gα16 cells, Fluo-4 calcium signal, normalized to WKYMVm 10 nM
Summary of the method: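 HEK293 cells co-expressing human ALX receptor and Gα16 were loaded with 1 μM Fluo-4 AM for 60 min at 37° C., then exposed to serially diluted compounds on FLIPR Tetra. Peak fluorescence above baseline (ex 488/em 540 nm) was normalized to 10 nM WKYMVm as high control.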

SMILES | EC50
COc1ccc(CC(NC(=O)N[C@H]2CC[C@H](OC)CC2)c2nc3ccccc3[nH]2)cc1 (relative stereo) [Example 80, 1-(1-(1H-Benzo[d]imidazol-2-yl)-2-(4-methoxyphenyl)ethyl)-3-(trans-4-methoxycyclohexyl)urea] | 172 nM
COc1ccc(C[C@@H](NC(=O)NCCC2CCN(C(C)=O)CC2)c2nc3ccccc3[nH]2)cc1 [Example 159, (R)-1-(1-(1H-Benzo[d]imidazol-2-yl)-2-(4-methoxyphenyl)ethyl)-3-(2-(1-acetylpiperidin-4-yl)ethyl)urea] | 876 nM
COc1cc(F)c(CC(NC(=O)N[C@H]2CC[C@H](O)CC2)c2nc3ccccc3[nH]2)cc1F (relative stereo) [Example 247, 1-(1-(1H-Benzo[d]imidazol-2-yl)-2-(2,5-difluoro-4-methoxyphenyl)ethyl)-3-(trans-4-hydroxycyclohexyl)urea] | 10 nM
COC[C@H](Cc1ccccc1)NC(=O)N[C@H](Cc1ccc(OC)cc1)c1nc2ccccc2[nH]1 [Example 204, 1-((R)-1-(1H-Benzo[d]imidazol-2-yl)-2-(4-methoxyphenyl)ethyl)-3-((S)-1-methoxy-3-phenylpropan-2-yl)urea] | 5 nM
COc1ccc(C[C@@H](NC(=O)NCCc2cccnc2)c2nc3ccccc3[nH]2)cc1 [Example 280, (R)-1-(1-(1H-Benzo[d]imidazol-2-yl)-2-(4-methoxyphenyl)ethyl)-3-(2-(pyridin-3-yl)ethyl)urea] | 250 nM
COc1ccc(C[C@@H](NC(=O)NC2CC3CCC2C3)c2nc3ccccc3[nH]2)cc1 (stereo partly drawn) [Example 25, 1-((R)-1-(1H-Benzo[d]imidazol-2-yl)-2-(4-methoxyphenyl)ethyl)-3-(bicyclo[2.2.1]heptan-2-yl)urea] | 9.7 nM
COC(=O)C1CCCC(NC(=O)N[C@H](Cc2ccc(OC)cc2)c2nc3ccccc3[nH]2)C1 (stereo partly drawn) [Example 228, Methyl 3-(3-((R)-1-(1H-benzo[d]imidazol-2-yl)-2-(4-methoxyphenyl)ethyl)ureido)cyclohexanecarboxylate] | 11 nM
COc1ccc(C[C@@H](NC(=O)NC2CCN(S(C)(=O)=O)C2)c2nc3ccccc3[nH]2)cc1 (stereo partly drawn) [Example 157, 1-((R)-1-(1H-Benzo[d]imidazol-2-yl)-2-(4-methoxyphenyl)ethyl)-3-(1-(methylsulfonyl)pyrrolidin-3-yl)urea] | 187 nM
COc1ccc(CC(NC(=O)NC2CCN(C)CC2)c2nc3ccccc3[nH]2)cc1 (centres unmarked) [Example 49, 1-(1-(1H-Benzo[d]imidazol-2-yl)-2-(4-methoxyphenyl)ethyl)-3-(1-methylpiperidin-4-yl)urea] | 85 nM
COc1ccc(C[C@@H](NC(=O)N[C@H](C)c2ccc(OC)cc2)c2nc3ccccc3[nH]2)cc1 [Example 336, 1-((R)-1-(1H-Benzo[d]imidazol-2-yl)-2-(4-methoxyphenyl)ethyl)-3-((R)-1-(4-methoxyphenyl)ethyl)urea] | 248 nM
COc1ccc(C[C@@H](NC(=O)NC(C)(C)c2cccc(C)c2)c2nc3ccccc3[nH]2)cc1 [Example 353, (R)-1-(1-(1H-Benzo[d]imidazol-2-yl)-2-(4-methoxyphenyl)ethyl)-3-(2-(m-tolyl)propan-2-yl)urea] | 461 nM
COC(=O)N1CCC(NC(=O)N[C@H](Cc2ccc(OC)cc2)c2nc3ccccc3[nH]2)CC1 [Example 139, (R)-Methyl 4-(3-(1-(1H-benzo[d]imidazol-2-yl)-2-(4-methoxyphenyl)ethyl)ureido)piperidine-1-carboxylate] | 414 nM
COc1ccc(C[C@@H](NC(=O)N[C@H](C)c2ccc(C)cc2)c2nc3ccccc3[nH]2)cc1 [Example 301, 1-((R)-1-(1H-Benzo[d]imidazol-2-yl)-2-(4-methoxyphenyl)ethyl)-3-((R)-1-(p-tolyl)ethyl)urea] | 66 nM
CCOC(=O)[C@@H]1CCCC[C@H]1NC(=O)N[C@H](Cc1ccc(OC)cc1)c1nc2ccccc2[nH]1 (relative stereo) [Example 161, (1R*,2R*)-Ethyl 2-(3-((R)-1-(1H-benzo[d]imidazol-2-yl)-2-(4-methoxyphenyl)ethyl)ureido)cyclohexanecarboxylate] | 0.6 nM
COc1ccc(C[C@@H](NC(=O)NC2CCCC2)c2nc3ccccc3[nH]2)cc1 [Example 75, (R)-1-(1-(1H-Benzo[d]imidazol-2-yl)-2-(4-methoxyphenyl)ethyl)-3-cyclopentylurea] | 41 nM
COc1ccc(CC(NC(=O)N[C@H]2CC[C@](C)(O)CC2)c2nc3ccc(F)cc3[nH]2)c(F)c1 (mixture of isomers) [Example 246, 1-(1-(6-Fluoro-1H-benzo[d]imidazol-2-yl)-2-(2-fluoro-4-methoxyphenyl)ethyl)-3-(trans-4-hydroxy-4-methylcyclohexyl)urea] | 1.8 nM

SMILES | EC50
COc1ccc(C[C@@H](NC(=O)N2CCCC2)c2nc3ccccc3[nH]2)cc1 [Example 91, (R)—N-(1-(1H-Benzo[d]imidazol-2-yl)-2-(4-methoxyphenyl)ethyl)pyrrolidine-1-carboxamide] | 561 nM
COc1ccc(C[C@@H](NC(=O)N[C@H](CO)c2ccccc2)c2nc3ccccc3[nH]2)cc1 [Example 203, 1-((R)-1-(1H-Benzo[d]imidazol-2-yl)-2-(4-methoxyphenyl)ethyl)-3-((S)-2-hydroxy-1-phenylethyl)urea] | 176 nM
COc1ccc(C[C@@H](NC(=O)NC2CCCN(C)C2)c2nc3ccccc3[nH]2)cc1 (stereo partly drawn) [Example 117, 1-((R)-1-(1H-Benzo[d]imidazol-2-yl)-2-(4-methoxyphenyl)ethyl)-3-(1-methylpiperidin-3-yl)urea] | 62 nM
O=C(NC(Cc1ccc(Br)cc1F)c1nc2ccccc2[nH]1)N[C@H]1CC[C@H](O)CC1 (relative stereo) [Example 188, 1-(1-(1H-Benzo[d]imidazol-2-yl)-2-(4-bromo-2-fluorophenyl)ethyl)-3-(trans-4-hydroxycyclohexyl)urea] | 3.7 nM
COc1ccc(C[C@@H](NC(=O)NC2CCc3cc(OC)c(OC)cc32)c2nc3ccccc3[nH]2)cc1 (stereo partly drawn) [Example 348, 1-((R)-1-(1H-Benzo[d]imidazol-2-yl)-2-(4-methoxyphenyl)ethyl)-3-(5,6-dimethoxy-2,3-dihydro-1H-inden-1-yl)urea] | 26 nM
COc1ccc(C[C@@H](NC(=O)NC2CCN(CCF)CC2)c2nc3ccccc3[nH]2)cc1 [Example 181, (R)-1-(1-(1H-Benzo[d]imidazol-2-yl)-2-(4-methoxyphenyl)ethyl)-3-(1-(2-fluoroethyl)piperidin-4-yl)urea] | 88 nM
COc1ccc(C[C@@H](NC(=O)N[C@H]2CC[C@@](C)(O)CC2)c2nc3ccccc3[nH]2)cc1 [Example 189, 1-((R)-1-(1H-Benzo[d]imidazol-2-yl)-2-(4-methoxyphenyl)ethyl)-3-(cis-4-hydroxy-4-methylcyclohexyl)urea] | 19 nM
COc1ccc(C[C@@H](NC(=O)NCC2COc3cnccc32)c2nc3ccccc3[nH]2)cc1 (stereo partly drawn) [Example 282, 1-((R)-1-(1H-Benzo[d]imidazol-2-yl)-2-(4-methoxyphenyl)ethyl)-3-((2,3-dihydrofuro[2,3-c]pyridin-3-yl)methyl)urea] | 351 nM
COc1ccc(CC(NC(=O)N[C@H]2CC[C@H](O)CC2)c2nc3cc(Br)c(Br)cc3[nH]2)cc1 (single isomer, unassigned; ent-1) [Example 425, 1-(1-(5,6-dibromo-1H-benzo[d]imidazol-2-yl)-2-(4-methoxyphenyl)ethyl)-3-(trans-4-hydroxycyclohexyl)urea (ent-1)] | 119 nM
COc1ccc(CC(NC(=O)Nc2cc(C)nn2-c2ccccc2)c2nc3ccccc3[nH]2)cc1 (centres unmarked) [Example 408, 1-(1-(1H-benzo[d]imidazol-2-yl)-2-(4-methoxyphenyl)ethyl)-3-(3-methyl-1-phenyl-1H-pyrazol-5-yl)urea] | 20 nM
COc1ccc(CC(NC(=O)N[C@H]2CC[C@H](O)CC2)c2nc3ccccc3[nH]2)c(C)c1 (relative stereo) [Example 396, 1-(1-(1H-Benzo[d]imidazol-2-yl)-2-(4-methoxy-2-methylphenyl)ethyl)-3-(trans-4-hydroxycyclohexyl)urea] | 26 nM
COc1ccc(C[C@@H](NC(=O)NC[C@@H](O)c2ccccc2)c2nc3ccccc3[nH]2)cc1 [Example 281, 1-((R)-1-(1H-Benzo[d]imidazol-2-yl)-2-(4-methoxyphenyl)ethyl)-3-((S)-2-hydroxy-2-phenylethyl)urea] | 105 nM
COc1ccc(C[C@@H](NC(=O)N[C@@H]2CCN(C(C)=O)C2)c2nc3ccccc3[nH]2)cc1 [Example 142, 1-((R)-1-(1H-Benzo[d]imidazol-2-yl)-2-(4-methoxyphenyl)ethyl)-3-((R)-1-acetylpyrrolidin-3-yl)urea] | 306 nM
O=C(N[C@H](Cc1ccc(C(F)(F)F)cc1)c1nc2ccccc2[nH]1)NC12CCC(O)(CC1)CC2 [Example 255, (R)-1-(1-(1H-Benzo[d]imidazol-2-yl)-2-(4-(trifluoromethyl)phenyl)ethyl)-3-(4-hydroxybicyclo[2.2.2]octan-1-yl)urea] | 27 nM
COc1ccc(CC(NC(=O)Nc2ccnn2-c2ccccc2)c2nc3ccccc3[nH]2)cc1 (centres unmarked) [Example 412, 1-(1-(1H-benzo[d]imidazol-2-yl)-2-(4-methoxyphenyl)ethyl)-3-(1-phenyl-1H-pyrazol-5-yl)urea] | 157 nM
COc1ccc(C[C@@H](NC(=O)NCCc2ccccc2Cl)c2nc3ccccc3[nH]2)cc1 [Example 56, (R)-1-(1-(1H-Benzo[d]imidazol-2-yl)-2-(4-methoxyphenyl)ethyl)-3-(2-chlorophenethyl)urea hydrochloride] | 109 nM
